A word on the inhibition: it is the drop in the measured response relative to a control, in per cent. The term half-life denotes the time needed for the level to fall by half in the phase considered. As usually defined, the IC50 is the midpoint of a concentration-inhibition curve.

In data set [1] the test system is rhythmic bladder contractions. Description: Isovolumetric bladder model, intravenous protocol. Format: in vivo, rat. To be noted: 10 mg/kg i.v., anesthetized female rats. The procedure: (§1) Female rats were anesthetized with urethane. Ureters were ligated and sectioned. A catheter was inserted through the urinary meatus into the bladder before urethral ligature. Two protocols for testing compounds were used: intravenous (i.v.) or intravesical (i.ves.) administration.
In the first protocol, the bladder was filled by step of 100 μL of saline every 5 min until the occurrence of rhythmic bladder contractions (RBC). After a 30 min control period, compound (1) dissolved in solutol/NMP solution (2:1 w/w) at a dosage of 10 mg/kg, or vehicle were administered i.v (1 ml in 5 min) […] and the resulting effect was followed for 60 min. For each group, Micturition Frequency (MF) and Amplitude of Micturition (AM) were measured during the control and treatment periods.

The subject of data set [2] is rhythmic bladder contractions. Description: Isovolumetric bladder model, intravesical protocol. The data set is classed as in vivo, rat. The procedure:
as §1
In the second protocol, the bladder was filled first 3 times every 5 min with 100 μL of a solution of solutol/NMP […] containing 0.756 mg of compound (1) or with 100 μL of vehicle, then with 100 μL of saline every 5 min until the occurrence of RBC. A maximal volume of 3 mL was infused. The threshold volume inducing RBC in each group was compared. […] Furthermore, the threshold volume (TV) in the group treated with compound (1) reached 3 mL without RBC occurrence whereas, in the vehicle group, RBC occurred in all rats with a mean volume of 0.7±0.09 ml.

Data set [3] deals with T1, hTRPV1 channels (Homo sapiens, UniProt Q8NER1).
T1 construct: expressed in transfected cells; host or cells: HEK293
Description: Selectivity analysis, calcium influx assay, hTRPV1 in HEK293 cells. The data set is classed as cell-based. As to the method: The objective of this study was to evaluate the effects in vitro of compound 1 on 3 cloned human channels expressed in HEK293 or CHO cells using the Fluo-8 calcium kit (AAT Bioquest, Inc.), and a Fluorescence Imaging Plate Reader (FLIPR^TETRA™) instrument. The following 3 cloned human channels were evaluated in this study. • 1. Cloned hTRPM8 channels (encoded by the human TRPM8 gene, stably expressed in CHO cells), • 2. Cloned hTRPV1 channels (encoded by the human TRPV1 gene, stably expressed in HEK293 cells), • 3. Cloned hTRPV4 channels (encoded by the human TRPV4 gene, stably expressed in CHO cells).
The effects of […] (0.001, 0.01, 1, and 10 μM) of compound (1) were evaluated on these three TRP channels (n>3) using the following experimental procedure for each channel tested:
The ability of compound (1) to act as an antagonist of TRPV1 was evaluated with a calcium influx assay. The signal elicited in the presence of the positive control agonist (0.1 μM capsaicin) was set to 100% and the signal in the presence of the antagonist (5 μM ruthenium red) was set to 0.

Data set [4] deals with T2, CYP1A2 (Homo sapiens, UniProt P05177).
T2 sequence (P05177 1-516): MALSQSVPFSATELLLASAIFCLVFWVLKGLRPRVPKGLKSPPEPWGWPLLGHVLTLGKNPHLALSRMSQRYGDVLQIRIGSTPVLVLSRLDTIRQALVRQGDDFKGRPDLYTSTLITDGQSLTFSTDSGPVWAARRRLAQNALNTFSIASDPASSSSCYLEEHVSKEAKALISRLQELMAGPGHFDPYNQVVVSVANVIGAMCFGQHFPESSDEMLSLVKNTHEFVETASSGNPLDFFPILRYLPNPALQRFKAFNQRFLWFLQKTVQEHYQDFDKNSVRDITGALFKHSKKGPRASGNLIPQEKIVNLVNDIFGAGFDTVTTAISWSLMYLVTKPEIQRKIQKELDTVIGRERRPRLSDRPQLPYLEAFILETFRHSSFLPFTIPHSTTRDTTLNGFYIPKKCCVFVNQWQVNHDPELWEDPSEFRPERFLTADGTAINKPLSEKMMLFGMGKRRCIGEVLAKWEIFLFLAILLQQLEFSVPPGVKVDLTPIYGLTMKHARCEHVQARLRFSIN
Description: CYP inhibition 1A2. To be noted: 1A2, 10 μM. The data set is classed as in vitro ADME.

Data set [5] concerns the target CYP2D6 (Homo sapiens, UniProt P10635). Description: CYP inhibition 2D6. Format: in vitro ADME. To be noted: 2D6, 10 μM.
Data set [6] is described as follows: Plasma stability, human. Format: in vitro ADME.
Data set [7] can be described thus: t1/2 i.v. rat. To be noted: in vivo, iv.
In data set [8] the target is human TRPM8 (Homo sapiens, UniProt Q7Z2W7). Description: Selectivity analysis, calcium influx assay (Fluo-8, FLIPR TETRA), hTRPM8 in CHO cells. The arrangement: expressed in transfected cells; host or cells: CHO. The data set is classed as cell-based. The procedure:
The following 3 cloned human channels were evaluated in this study. • 1. Cloned hTRPM8 channels (encoded by the human TRPM8 gene, stably expressed in CHO cells), • 2. Cloned hTRPV1 channels (encoded by the human TRPV1 gene, stably expressed in HEK293 cells), • 3. Cloned hTRPV4 channels (encoded by the human TRPV4 gene, stably expressed in CHO cells). […] The ability of compound (1) to act as an antagonist of TRPM8 was evaluated with a calcium influx assay. […] Values were considered significant and highlighted in yellow if the test article mean was three or more standard deviations away from the positive control agonist mean.

The mark [9] stands for this setting: CHO, read-out: normalized % inhibition TRPM8.

T1 sequence (Q8NER1 whole entry): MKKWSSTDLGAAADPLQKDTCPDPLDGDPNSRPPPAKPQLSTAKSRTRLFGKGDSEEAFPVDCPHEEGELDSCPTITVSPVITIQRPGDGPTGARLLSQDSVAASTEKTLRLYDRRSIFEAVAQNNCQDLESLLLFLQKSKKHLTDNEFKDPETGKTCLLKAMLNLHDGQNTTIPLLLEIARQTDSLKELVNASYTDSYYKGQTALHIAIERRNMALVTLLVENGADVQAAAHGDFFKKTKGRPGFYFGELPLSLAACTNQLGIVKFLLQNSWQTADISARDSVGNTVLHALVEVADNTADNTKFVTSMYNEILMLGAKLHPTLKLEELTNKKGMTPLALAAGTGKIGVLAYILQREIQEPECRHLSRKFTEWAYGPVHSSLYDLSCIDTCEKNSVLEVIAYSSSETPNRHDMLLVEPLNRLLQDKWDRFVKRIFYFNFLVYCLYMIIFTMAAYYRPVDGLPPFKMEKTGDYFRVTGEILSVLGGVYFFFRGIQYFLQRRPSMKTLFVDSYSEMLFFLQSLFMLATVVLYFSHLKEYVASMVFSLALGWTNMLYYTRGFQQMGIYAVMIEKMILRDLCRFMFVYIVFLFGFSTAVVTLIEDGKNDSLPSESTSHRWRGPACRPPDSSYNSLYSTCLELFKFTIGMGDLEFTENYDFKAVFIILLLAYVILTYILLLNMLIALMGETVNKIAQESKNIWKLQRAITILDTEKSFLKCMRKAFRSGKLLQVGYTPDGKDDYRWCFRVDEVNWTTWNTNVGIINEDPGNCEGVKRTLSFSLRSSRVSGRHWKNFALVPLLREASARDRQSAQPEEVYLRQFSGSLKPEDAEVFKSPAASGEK
Chain of human TRPM8 (Q7Z2W7 whole entry): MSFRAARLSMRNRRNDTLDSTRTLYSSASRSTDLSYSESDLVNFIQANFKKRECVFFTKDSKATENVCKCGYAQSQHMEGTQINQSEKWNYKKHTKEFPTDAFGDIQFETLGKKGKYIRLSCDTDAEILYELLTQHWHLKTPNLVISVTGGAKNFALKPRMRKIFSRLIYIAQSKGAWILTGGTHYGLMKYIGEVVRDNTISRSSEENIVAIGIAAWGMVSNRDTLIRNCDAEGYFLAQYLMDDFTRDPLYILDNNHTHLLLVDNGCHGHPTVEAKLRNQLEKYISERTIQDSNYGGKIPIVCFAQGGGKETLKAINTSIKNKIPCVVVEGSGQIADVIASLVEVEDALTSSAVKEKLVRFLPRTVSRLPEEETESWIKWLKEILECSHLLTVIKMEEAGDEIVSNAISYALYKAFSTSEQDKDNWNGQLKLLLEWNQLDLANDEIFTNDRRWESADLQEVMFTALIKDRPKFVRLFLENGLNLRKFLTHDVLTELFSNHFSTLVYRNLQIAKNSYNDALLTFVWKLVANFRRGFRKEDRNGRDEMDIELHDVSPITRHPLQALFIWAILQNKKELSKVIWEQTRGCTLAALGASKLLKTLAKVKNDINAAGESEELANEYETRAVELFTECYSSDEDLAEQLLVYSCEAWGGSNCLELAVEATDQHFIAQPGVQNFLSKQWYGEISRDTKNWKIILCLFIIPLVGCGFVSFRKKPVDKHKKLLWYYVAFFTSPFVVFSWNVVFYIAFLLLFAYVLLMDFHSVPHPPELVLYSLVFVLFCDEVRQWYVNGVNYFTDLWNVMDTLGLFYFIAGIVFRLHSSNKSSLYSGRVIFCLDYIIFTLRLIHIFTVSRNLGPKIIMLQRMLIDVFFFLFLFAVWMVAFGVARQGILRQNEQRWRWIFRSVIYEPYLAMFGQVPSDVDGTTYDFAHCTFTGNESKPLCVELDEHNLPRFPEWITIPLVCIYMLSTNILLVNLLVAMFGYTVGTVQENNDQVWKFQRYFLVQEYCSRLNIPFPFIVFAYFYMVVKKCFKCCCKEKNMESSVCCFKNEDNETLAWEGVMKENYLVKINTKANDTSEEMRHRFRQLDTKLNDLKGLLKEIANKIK
Chain of CYP2D6 (P10635 whole entry): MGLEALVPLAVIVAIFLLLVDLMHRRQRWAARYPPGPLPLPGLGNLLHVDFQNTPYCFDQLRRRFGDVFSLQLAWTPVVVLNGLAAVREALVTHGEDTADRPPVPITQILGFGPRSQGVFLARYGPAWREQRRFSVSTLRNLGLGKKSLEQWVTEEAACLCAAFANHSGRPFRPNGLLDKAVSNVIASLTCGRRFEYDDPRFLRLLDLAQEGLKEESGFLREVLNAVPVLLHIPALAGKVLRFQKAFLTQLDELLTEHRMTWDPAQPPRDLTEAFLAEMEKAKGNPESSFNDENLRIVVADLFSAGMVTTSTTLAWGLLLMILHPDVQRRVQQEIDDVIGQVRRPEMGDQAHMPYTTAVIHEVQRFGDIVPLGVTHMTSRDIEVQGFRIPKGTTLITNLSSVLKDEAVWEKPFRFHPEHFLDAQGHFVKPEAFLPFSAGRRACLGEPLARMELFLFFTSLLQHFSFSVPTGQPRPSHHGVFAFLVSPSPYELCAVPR

With `Cl.Clc1c(OCCNCc2ccco2)ccc2ccccc12` [Compound 1, 2-[(1-chloronaphthalen-2-yl)oxy]-N-(furan-2-ylmethyl)ethanaminium chloride], the “time of inhibition of RBC, higher compared to vehicle group” value in data set [1] is reported as “about 300 sec”. Also, in data set [1] (first 30 min), the “reduction of Micturition Frequency (MF)” value is “about 36%”. In addition, in data set [2], the “effect on Amplitude of Micturition (AM)” value is “did not change AM”. Further, in data set [2] (3 x 100 μL containing 0.756 mg), the “effect on rhythmic bladder contractions (RBC)” value was “completely abolished RBC”. This molecule returned a threshold volume (TV) inducing RBC in data set [2] (maximal volume infused 3 mL, no RBC occurrence) of more than 3 mL. Further, the inhibition at 0.001 µM in data set [3] (HEK293, 0.001 μM, 0.1 μM capsaicin = 100%, 5 μM ruthenium red = 0, read-out: normalized % inhibition TRPV1) is -9.14%; in data set [8] (setting [9]) it was -25.2%. The inhibition at 0.01 µM in data set [3] (HEK293, 0.01 μM, 0.1 μM capsaicin, read-out: normalized % inhibition TRPV1) stood at 5.29%; in data set [8] (setting [9]) it was 21.4%. For the same molecule, the inhibition at 0.1 µM was 2.12% in data set [3] (HEK293, 0.1 μM, 0.1 μM capsaicin, read-out: normalized % inhibition TRPV1) and 95.6% in data set [8] (setting [9]). The inhibition at 1 µM came to 5.37% in data set [3] (HEK293, 1 μM, 0.1 μM capsaicin, read-out: normalized % inhibition TRPV1) and 95.6% in data set [8] (setting [9]). The inhibition at 10 µM was 4.9% in data set [3] (HEK293, 10 μM, 0.1 μM capsaicin, read-out: normalized % inhibition TRPV1); 98.8% in data set [4]; 100% in data set [5]; 96.4% in data set [8] (setting [9]). Moreover, in data set [3] (all the assay concentrations), the “inhibition of TRPV1 ion channel (in words)” value is “do not show any relevant inhibition”. Besides, the “Plasma stability (% remaining) @10 μM” value in data set [6] worked out at 96%. Also, in data set [7], the half-life worked out at 1.05 h. Besides, the IC50 in data set [8] (read-out: IC50 (TRPM8)) worked out at 70 nM.

The values above are taken from patent publication US8906946B2, “TRPM8 receptor antagonists” (Dompe' S.p.A., priority 2011, dated 2014).
